Earlier results as cited in patent US20210308204A1, “FORMULATIONS CONTAINING LIPOPHILIC EXTRACTS OF SPICY EDIBLE PLANTS USEFUL IN CONTROLLING PAIN AND INFLAMMATION” (priority 2018, published 2021).

Conditions: in vivo, po

For `C/C1=C\CC/C(C)=C/C[C@](O)(C(C)C)CC/C(C)=C/CC1` [serratol], the tmax is listed as “about 15 minutes”.
